Consider one compound from paper PMC5392761, “Discovery of Antimalarial Azetidine-2-carbonitriles That Inhibit P. falciparum Dihydroorotate Dehydrogenase” (ACS Medicinal Chemistry Letters, 2017).

The nature of the series: Mouse pharmacokinetics assay (IV and PO). It is filed as in vivo, CD-1 mice. The conditions noted are these: mice.

SMILES strings stand for the structures.

As usually defined, the bioavailability is dose-corrected exposure relative to a reference, in per cent. In the case of `CCCNC(=O)N1[C@H](C#N)[C@H](c2ccc(-c3ccc(C(F)(F)F)c(C(F)(F)F)c3)cc2)[C@H]1CO` [Compound 27], the bioavailability (female, CD-1, mouse, in vivo, PO 5 mg/kg, IV 1 mg/kg, read-out: F, bioavailability) stood at 94%. Under “IV 1 mg/kg”, the “C0, initial serum concentration at t = 0” value was 4.9 µM and the “Vss, volume of distribution at steady state” value was 0.37 L/kg. For the same compound, the Cmax (PO 5 mg/kg, read-out: Cmax, peak serum concentration) turned out to be 16.9 µM. In addition, the “DNAUC0-inf, dose-normalized area under the plasma concentration vs time curve” value (following PO dosing 5 mg/kg) is >54.3 µM·h.
